Results: patent publication US20250325675A1, “APTAMER, CONJUGATE, COMPOSITION, METHOD FOR PREPARING SAME, AND USE THEREOF” (priority 2022, published 2025)
{Cy5} = cyanine 5 fluorescent dye

Tests used:
U251 human glioma cells = assay: High content imaging: entry of conjugates into U251 cells; type: cell-based; details: 100 nM, 30 min 37°C
Method: (§1) In this experiment, the entry of conjugate AP1 provided by the present disclosure and comparative conjugate comparative AP10 into different cells was observed by a PerkinElmer High Content Imaging system (Operatta).
(§2) U118MG glioma cells, SVGp12 normal astrocytes, T98G human brain glioma cells, U251 human glioma cells, A549 human non-small cell lung cancer cells, MCF-7 human breast cancer cells, and 293T human kidney epithelial cells were all purchased from the Shanghai Cell Bank of Chinese Academy of Sciences. […] The supernatant was aspirated and DPBS buffer (purchased from Thermo Fisher) was added to wash the plate 2 times (100 μL each time).
(§3) Conjugate AP1 prepared above and yeast tRNA were respectively formulated into conjugate solution 2A with DMEM medium, and the conjugate solution 2A comprised yeast tRNA at a final concentration of 100 μg/mL and conjugate AP1 at a final concentration of 100 nM. […]
(§4) Normalization was performed according to the mean fluorescence intensity of control group 2Y, that is, subtracting the mean fluorescence intensity of control group 2Y from the fluorescence intensity of test group 2X before performing imaging.

[1] = test system: A549 human non-small cell lung cancer cells; assay: High content imaging: entry of conjugates into A549 cells; type: cell-based; details: 100 nM, 30 min 37°C
Method: as §1, §2, §3, §4

[2] = test system: 293T human renal epithelial cells; assay: High content imaging: entry of conjugates into 293T cells; type: cell-based; details: 100 nM, 30 min 37°C, normal cells
Method: as §1, §2, §3, §4

[3] = test system: A549 human non-small cell lung cancer tumor spheres; assay: High content imaging: entry into A549 tumor spheres; type: cell-based; details: 100 nM, imaging without washing
Method: In this experiment, the entry of conjugate AP1 provided by the present disclosure and comparative conjugate comparative AP10 into U118MG glioma tumor spheres and A549 human non-small cell lung cancer tumor spheres was observed by a PerkinElmer High Content Imaging system (Operatta).
80 μL fresh, sterilized and unsolidified 2% agarose was added into the culture wells of a 96-well plate. […] Half of the supernatant was aspirated every 48 h and fresh DMEM medium was added along the wall of the culture wells. After 7 days of culture, the cells were observed under the microscope to confirm that complete cell spheres were obtained, indicating successful tumor sphere cultivation.
Each culture well was added with AP1 or comparative AP10 according to the method of experimental Example 2, and imaged in a high content imaging system, with the only difference of directly performing imaging after culture without washing and performing imaging according to the measured fluorescence intensity of Cy5.

[4] = test system: U118MG glioma subcutaneous tumor; assay: In vivo distribution in U118MG cell subcutaneous tumor model mice (Experimental Example 4); design: species or system NOD-SCID mice; details: mouse, in vivo
Method: U118MG human glioma cells in the logarithmic growth phase were selected and digested (0.25% pancreatic enzyme).
The mice were further fed for 20 days after injection.
The mice inoculated with U118MG above were randomly divided into 3 groups (4 mice per group). For the 4 mice per group, the administration volume was calculated according to 10 μL/g body weight, and AP1, AP2 and comparative AP11 were respectively administered to different groups of mice by tail vein injection and designated as test group 4A1, test group 4A2 and control group 4A3. Thus, the administration dosage of each mouse was 3 mg/kg (based on aptamer). Another mouse inoculated with U118MG above was administered with 1×DMEM medium by tail vein injection (the administration volume was 10 μL/g body weight), and designated as blank control group 4Y.

[5] = test system: U118-MG neuroglioma cells; assay: CCK8 cell viability, U118-MG neuroglioma cells (Experimental Example 12); type: cell-based, human; details: 72 h; AP1 50-800 nM, conjugate 19 25-800 nM; CCK8, OD450
Method: U118MG neuroglioma cells were purchased from Jennio; SVGp12 human astrocytes were purchased from the Shanghai Cell Bank of Chinese Academy of Sciences; CCK8 kit was purchased from DOJINDO Laboratories.
U118MG cells and SVGp12 cells in the logarithmic growth phase were selected and seeded into a 96-well plate of a CCK8 kit at 5000 cells/well, cultured at 37° C. with 5% CO2 for 24 h. U118-MG cells and SVGp12 cells to be detected were obtained when the cell confluence was observed as 80% under microscope. […]
AP1 solution 1, AP1 solution 2, AP1 solution 3, and AP1 solution 4 were respectively added into U118-MG cells to be detected, and incubated at 37° C. for 72 h in the dark. […]
Conjugate 19 solution 1, Conjugate 19 solution 2, Conjugate 19 solution 3, Conjugate 19 solution 4, Conjugate 19 solution 5, Conjugate 19 solution 6, and Conjugate 19 solution 7 were respectively added into U118-MG cells to be detected, and incubated at 37° C. for 72 h in the dark. […]
CC8 kit was used to detect UV absorbance of test groups and control groups above at the detection wavelength of 450 nm in UV absorption spectrum according to the instructions, and the average value of the repeated experiments was taken for each group. Cell viability was calculated according to the following equation: […]

Q: “CY5-CfUfGGAGUfUfCfAGACfGUfGUfUfGCfUfCfUfUfCfCfGAUfCfUfCf (CUGGAGUUCAGACGUGUUGCUCUUCCGAUCUC; 2'-fluoro at CU, RNA at AG, 5' {Cy5}, backbone not given here) [AP1]” was tested. Which “Cy5 fluorescence signal in cells” value (U251 human glioma cells) did it give?
A: The value was “strong Cy5 fluorescence signal”.

Q: And the “Cy5 fluorescence signal in cells” value [1]?
A: The value was “strong Cy5 fluorescence signal”.

Q: What about the “Cy5 fluorescence signal in cells” value [2] of the same substance?
A: Its value is “nor the 293T human renal epithelial cells showed any fluorescence signal”.

Q: What about the “Cy5 fluorescence signal in tumor spheres” value [3] of the same substance?
A: The value was “strong Cy5 fluorescence signal”.

Q: What about the “fluorescence signal in mice / at site of tumor inoculation” value [4] of the same substance?
A: The value was “strong fluorescence signal at the sites of tumor inoculation”.

Q: And the “cell viability of tumor cells” value [5]?
A: Its value is “no effect on cell viability”.
